Measured values published in US7615238B2, “Plaster for the treatment of dysfunctions and disorders of nails, comprising sertaconazole” (Trommsdorff GmbH & Co. KG Arzneimitttel, priority 2001, dated 2009).

Tested on: fungi such as Trichophyton mentagrophytes, Trichophyton rubrum, Candida albicans, Microsporum canis, Aspergillus niger
Assay: Efficacy against fungi in comparison with other antifungal agents
Conditions: in most cases, Trichosporum, Alternaria, Acremonium, Fusarium, Scopulariopsis

(R,S)-1-[2-[(7-Chloro-3-benzo[b]thienyl)-methoxy]-2-(2,4-dichlorophenyl)-ethyl]-1H-imidazole [sertaconazole]
efficacy against fungi in comparison with econazole, ketonazole, miconazole, or bifonazole: higher efficacy
